Measured values as given in ChEMBL document CHEMBL5500323, “Plasmodium falciparum topoisomerases: Emerging targets for anti-malarial therapy” (Eur J Med Chem, 2024).

Assays:
[1] = Inhibition of DNA topoisomerase II (unknown origin); set-up: species or system Homo sapiens
[2] = Inhibition of recombinant Plasmodium falciparum strain 3D7 Gyrase B expressed in Escherichia coli BL21 (DE3)
DNA gyrase = DNA gyrase (Escherichia coli, UniProt P0AES4+P0AES6); assay: Inhibition of Escherichia coli DNA gyrase ATPase activity incubated for 80 mins; format: protein-complex assay
[3] = Inhibition of Plasmodium falciparum NF54 Gyrase B
[4] = Inhibition of Plasmodium falciparum 3D7 Gyrase B
[5] = Inhibition of C-terminal 6His-tagged Plasmodium falciparum Gyrase B expressed in Escherichia coli
DNA topoisomerase 2 = target: T1, DNA topoisomerase 2 (Plasmodium falciparum K1, UniProt P41001); assay: Inhibition of Plasmodium falciparum isolate K1 DNA topoisomerase 2
T1 sequence (P41001 whole entry): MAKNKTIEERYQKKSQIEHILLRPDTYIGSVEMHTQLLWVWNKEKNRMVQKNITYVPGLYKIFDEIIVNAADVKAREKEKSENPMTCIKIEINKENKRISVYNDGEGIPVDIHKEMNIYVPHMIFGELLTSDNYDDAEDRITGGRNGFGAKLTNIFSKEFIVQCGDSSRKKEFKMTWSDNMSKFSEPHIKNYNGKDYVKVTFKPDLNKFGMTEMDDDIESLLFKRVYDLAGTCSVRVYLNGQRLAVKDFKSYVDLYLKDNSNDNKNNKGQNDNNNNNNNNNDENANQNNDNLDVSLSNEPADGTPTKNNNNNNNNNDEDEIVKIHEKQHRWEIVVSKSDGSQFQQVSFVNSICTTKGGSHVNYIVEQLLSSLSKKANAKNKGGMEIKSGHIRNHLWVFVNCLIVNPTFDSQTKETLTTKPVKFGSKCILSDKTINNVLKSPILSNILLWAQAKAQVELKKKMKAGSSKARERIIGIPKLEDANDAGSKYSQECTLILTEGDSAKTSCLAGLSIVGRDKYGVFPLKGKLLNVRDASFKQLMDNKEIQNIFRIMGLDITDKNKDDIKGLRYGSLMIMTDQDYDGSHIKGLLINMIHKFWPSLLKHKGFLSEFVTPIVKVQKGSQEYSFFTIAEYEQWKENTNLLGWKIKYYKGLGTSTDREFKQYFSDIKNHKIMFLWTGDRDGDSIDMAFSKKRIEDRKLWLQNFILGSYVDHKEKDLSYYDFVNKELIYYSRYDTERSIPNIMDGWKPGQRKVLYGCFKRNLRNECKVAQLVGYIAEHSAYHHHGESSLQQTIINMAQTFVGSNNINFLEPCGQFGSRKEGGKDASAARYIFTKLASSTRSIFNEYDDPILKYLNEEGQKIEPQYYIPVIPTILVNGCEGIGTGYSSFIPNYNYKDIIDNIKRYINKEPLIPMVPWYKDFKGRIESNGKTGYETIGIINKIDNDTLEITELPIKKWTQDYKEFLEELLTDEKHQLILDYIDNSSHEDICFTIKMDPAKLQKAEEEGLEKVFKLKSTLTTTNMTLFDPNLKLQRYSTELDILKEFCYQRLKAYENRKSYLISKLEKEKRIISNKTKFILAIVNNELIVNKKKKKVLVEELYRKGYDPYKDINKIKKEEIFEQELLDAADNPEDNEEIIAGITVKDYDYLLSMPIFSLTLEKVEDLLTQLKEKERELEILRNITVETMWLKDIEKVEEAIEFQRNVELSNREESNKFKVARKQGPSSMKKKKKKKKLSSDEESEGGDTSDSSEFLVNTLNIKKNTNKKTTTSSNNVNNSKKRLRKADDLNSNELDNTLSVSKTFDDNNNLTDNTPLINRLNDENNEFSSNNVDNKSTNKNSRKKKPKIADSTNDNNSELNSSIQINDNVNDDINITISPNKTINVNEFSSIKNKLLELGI

[6] = Inhibition of Plasmodium falciparum DNA topoisomerase VI

Work on `COc1ccc2ncc(C#N)c(CCN3CCC(NCc4cc5c(cn4)OCS5)CC3)c2c1` yielded an IC50 [1] of 0.6 µM.

In the case of `CO[C@@H]1[C@@H](OC(=O)c2ccc(C)[nH]2)[C@@H](O)[C@H](Oc2ccc3c(O)c(NC(=O)c4c[nH]c(C(=O)Nc5c(O)c6ccc(O[C@@H]7OC(C)(C)[C@H](OC)[C@@H](OC(=O)c8ccc(C)[nH]8)[C@H]7O)c(C)c6oc5=O)c4C)c(=O)oc3c2C)OC1(C)C`, the IC50 [2] is reported as 40 µM.

`O=C1c2ccccc2C(=O)c2c1cc(S(=O)(=O)O)c(O)c2O` [Alizarin Red S] showed an IC50 (DNA gyrase) of 55.6 µM.

Work on `O=C(O)c1cn(C2CC2)c2cc(N3CCNCC3)c(F)cc2c1=O` [CIPROFLOXACIN] yielded an IC50 [1] of 35 µM.

`NC1CCN(c2c(F)cc3c(=O)c(C(=O)O)cn(C4CC4)c3c2Cl)C1` (configuration not stated) [CLINAFLOXACIN] gave an IC50 [3] of 3.2 µM.

In the case of `COc1cc([C@@H]2c3cc4c(cc3[C@@H](O[C@@H]3O[C@@H]5CO[C@@H](C)O[C@H]5[C@H](O)[C@H]3O)[C@H]3COC(=O)[C@H]23)OCO4)cc(OC)c1O` [ETOPOSIDE], the IC50 [1] is reported as 20 µM.

Compound `C[n+]1c2cc(N)ccc2cc2ccc(N)cc21` [EUFLAVINE] has an IC50 [4] of 1000 nM.

`COc1c(N2CCNC(C)C2)c(F)cc2c(=O)c(C(=O)O)cn(C3CC3)c12` (configuration not stated) [GATIFLOXACIN] gave an IC50 [3] of 12 µM.

With `CO[C@@H]1[C@@H](OC(N)=O)[C@@H](O)[C@H](Oc2ccc3c(O)c(NC(=O)c4ccc(O)c(CC=C(C)C)c4)c(=O)oc3c2C)OC1(C)C` [NOVOBIOCIN] the IC50 [5] was 30 µM.

`O=c1c(O)cccc2cc(O)c(O)c(O)c12` [PURPUROGALLIN] showed an IC50 (DNA gyrase) of 9.56 µM.

`COc1ccc2nc3cc(Cl)ccc3c(Nc3cc(CN4CCCC4)c(O)c(CN4CCCC4)c3)c2n1` [PYRONARIDINE] gave an IC50 (DNA topoisomerase 2) of 5.5 µM.

With `C[C@@H]1C[C@H]2O[C@@H]2/C=C\C=C\C(=O)Cc2c(Cl)c(O)cc(O)c2C(=O)O1` [RADICICOL] the IC50 [6] was 80 µM.
